Test results reported in patent US11492347B2 (ENYO PHARMA, priority 2018, dated 2022).

How the values were obtained:
[1] = system: H1N1 (influenza A/New Caledonia/20/99); assay: microbe, parasite or virus in culture; format: cell-based; conditions: H1N1, A549, 48 h
NFκB = NFκB reporter assay, TNFα stimulation of A549 NFκB-NanoLuciferase reporter cells; format: cell-based; conditions: Homo sapiens, 4 ng/ml TNFα, NanoGlo luciferase assay 6 hours later
Description: Compounds of the present invention have been tested for their capacity to inhibit NFκB.
The NFκB reporter construct was made by cloning 5 NFκB responsive elements upstream of a NanoLuciferase reporter gene flanked by AAVS1 genomic sequences.
NFκB Responsive element fused with NanoLuciferase and SV40 late Poly(A) signal was amplified from pNL3.2-NFκB-Nluc (Promega) using NFKB-NLUC-F and NFKB-NLUC-R primers and inserted by Infusion (TaKaRa) in AAVS1 SA-2A-puro-pA donor plasmid (Hockemeyer et al, Nat Biotechnol. 2009, 27, 851-7) digested by Sal1. pCRISPR AAVS1-T2 expressing a guide RNA (gRNA) to target human AAVS1 (T2 target sequence) was constructed by inserting AAVS1-T2A hybridized primers in pLentiCRISPR v2-blast (Sanjana et al, Nat Methods. 2014, 11, 783-4) digested by Bsmbl.
A549 cells were transfected by the plasmids and puromycine selected for 5 days (1 μg mL-1). Then clones were obtained by limiting dilution and selected to maximize TNF dependent NFκB-NanoLuciferase induction.
The reporter cells were seeded on a 96-well plate for overnight with DMEM including 10% FBS. Test compounds were added at varying concentrations. The cells then were treated with 4 ng/ml TNFα (Peprotech, ref E251) in DMEM+10% FBS. NanoGlo luciferase assay (Promega) was carried out 6 hours later. Luminescence was measured using a Spark 20M spectrofluorimeter (Tecan). Values were normalized to the luminescence measured in untreated cells.

[2] = molecular target: T1, CISD1 Gene Product (mitoNEET) (Homo sapiens, UniProt Q9NZ45); assay: Stability of Fe-S cluster binding of purified NEET protein (absorbance 458 nm); format: biochemical; conditions: for Residual cluster bound at end of experiment (Percentage Absorbance 458 nm at time zero) / Time (in minutes) to achieve 50% loss of bound cluster (Absorbance 458 nm): mitoNEET 20 μM, compound 60 μM; for Residual cluster bound at end of experiment (Percentage Absorbance 458 nm at time zero): pH 6, at 180 minutes, vehicle control 16%; for Stabiliser or destabiliser of Fe-S cluster binding by CISD1 Gene Product (mitoNEET): time to 50% cluster loss changed by more than 25% compared to the Control sample, at the concentrations tested; for Time (in minutes) to achieve 50% loss of bound cluster (Absorbance 458 nm): pH 6, 37° C., run time 180 minutes, vehicle control 80
T1 sequence (Q9NZ45 33-108 limits assumed): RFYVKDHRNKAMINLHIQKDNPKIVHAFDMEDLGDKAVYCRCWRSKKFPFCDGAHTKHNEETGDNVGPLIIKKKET
Experimental: (§1) The modulator effect on the NEET proteins encoded by human CISD1, CISD2, and CISD3 genes by the compounds of the invention has been tested and is reported below. Particularly, the biochemical function of the NEET proteins is measured by the stability of Fe—S cluster binding of the purified NEET proteins.
(§2) The Fe—S cluster binding capacity of NEET proteins is known to be coordinated by four amino-acids in a stretch of 16 (three Cysteine and one Histidine). As the lability of the Fe—S cluster of NEET proteins is sensitive to the environment, cluster stability measurements are one of the measures of interactions of NEET proteins with small molecules and compounds. NEET protein/2Fe-2S cluster stability can be assessed by monitoring the decay in absorbance of its characteristic 458-nm peak (characteristic of the oxidized 2Fe-2S cluster) over time. Each NEET protein (mitoNEET, NAF-1 and Miner 2) was tested for its Fe—S binding in the absence or presence of a compound according to the invention (see table 4 below). The rate of cluster release (time in minutes to achieve 50% loss of bound Fe—S cluster) was compared for each NEET protein in the presence of one of the compounds of the invention (in a 1:3 protein:compound molar ratio) relative to each protein alone.
(§3) At pH 6, all the three NEET proteins (mitoNEET, NAF-1 and Miner 2) have a characteristic rate of loss of the bound Fe—S cluster that can be measured by the decrease of absorbance at wavelength 458 nm over time, using a spectrophotometer. Thus, Bis-Tris buffer (100 mM Bis-Tris pH6, 100 mM Nacl) was used at pH 6 to dilute either DMSO (Blank sample: Bis-Tris Buffer pH 6, 66 μM DMSO), DMSO and one of the three NEET proteins (Control sample: Bis-Tris Buffer pH 6, 66 μM DMSO, 20 μM purified NEET protein) or DMSO, one of the three NEET proteins and a compound of the invention (Test sample: Bis-Tris Buffer pH 6, 66 μM DMSO, 20 μM purified NEET protein, 60 μM compound of the invention).
(§4) A reaction mix containing DMSO diluted in the Bis-Tris Buffer with or without a compound of the invention was prepared. The purified NEET protein was the last component added to the reaction mix which was then aliquoted into 4 replicates in 96 wells plates. The absorbance at wavelength 458 nm was taken at 5 minutes intervals at 37° C. with a spectrofluorimeter. The assay run time for CISD2 gene product (NAF-1) was 500 minutes and 180 minutes for both the CISD1gene product (mitoNEET) and the CISD3 gene product (Miner2).
(§5) In addition to time monitoring, residual bound Fe—S cluster to NEET protein was measured at the final point of the spectrometry assay for each Test sample and compared to the Control sample data (in parenthesis table 4). This residual binding is measured by the differential percentage between the absorbance 458 nm at time zero and the absorbance 458 nm at the end of the experiment (i.e. respectively 500 or 180 minutes as described here above), showing the percentage of NEET protein still able to bind a Fe—S cluster.
(§6) Analysis of the absorbance enables the time for which 50% loss of bound Fe—S cluster is reached (i.e. a 50% absorbance decrease at 458 nm) for each Test sample and each Control sample (in parenthesis table 4) to be determined. The data are then compared to determine whether the compound of the invention stabilizes or destabilizes the NEET protein/Fe—S cluster binding.

[3] = molecular target: T2, CISD2 Gene Product (NAF-1) (Homo sapiens, UniProt Q8N5K1); assay: as above; format: biochemical; conditions: for Time (in minutes) to achieve 50% loss of bound cluster (Absorbance 458 nm) / Residual cluster bound at end of experiment (Percentage Absorbance 458 nm at time zero): NAF-1 20 μM, compound 60 μM; for Time (in minutes) to achieve 50% loss of bound cluster (Absorbance 458 nm): pH 6, 37° C., run time 500 minutes, vehicle control 310 or 210; for Residual cluster bound at end of experiment (Percentage Absorbance 458 nm at time zero): pH 6, at 500 minutes, vehicle control 3%; for Stabiliser or destabiliser of Fe-S cluster binding by CISD2 Gene Product (NAF-1): time to 50% cluster loss changed by more than 25% compared to the Control sample, at the concentrations tested
T2 sequence (Q8N5K1 57-135 limits assumed): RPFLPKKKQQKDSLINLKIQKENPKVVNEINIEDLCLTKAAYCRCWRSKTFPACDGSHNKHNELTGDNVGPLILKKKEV
Experimental: as §1, §2, §3, §4, §5, §6

[4] = molecular target: T3, CISD3 Gene Product (Miner2) (Homo sapiens, UniProt P0C7P0); assay: as above; format: biochemical; conditions: for Residual cluster bound at end of experiment (Percentage Absorbance 458 nm at time zero): CISD3 gene product 20 μM, pH 6, at 180 minutes, vehicle control 11%; for Residual cluster bound at end of experiment (Percentage Absorbance 458 nm at time zero) / Time (in minutes) to achieve 50% loss of bound cluster (Absorbance 458 nm): compound 60 μM; for Stabiliser or destabiliser of Fe-S cluster binding by CISD3 Gene Product (Miner2): time to 50% cluster loss changed by more than 25% compared to the Control sample, at the concentrations tested; for Time (in minutes) to achieve 50% loss of bound cluster (Absorbance 458 nm): Miner2 20 μM, pH 6, 37° C., run time 180 minutes, vehicle control 60
T3 sequence (P0C7P0 15-127): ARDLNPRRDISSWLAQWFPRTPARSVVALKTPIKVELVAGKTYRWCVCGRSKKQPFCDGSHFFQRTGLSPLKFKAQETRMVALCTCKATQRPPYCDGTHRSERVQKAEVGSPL
Experimental: as §1, §2, §3, §4, §5, §6

Structure (SMILES) | IC50 [1] [nM] | EC50 (NFκB) [nM] | Residual cluster bound at end of experiment (Percentage Absorbance 458 nm at time zero) [2] | Stabiliser or destabiliser of Fe-S cluster binding by CISD1 Gene Product (mitoNEET) [2] | Time (in minutes) to achieve 50% loss of bound cluster (Absorbance 458 nm) [3] | Residual cluster bound at end of experiment (Percentage Absorbance 458 nm at time zero) [3] | Stabiliser or destabiliser of Fe-S cluster binding by CISD2 Gene Product (NAF-1) [3] | Residual cluster bound at end of experiment (Percentage Absorbance 458 nm at time zero) [4] | Stabiliser or destabiliser of Fe-S cluster binding by CISD3 Gene Product (Miner2) [4] | Time (in minutes) to achieve 50% loss of bound cluster (Absorbance 458 nm) [2] | Time (in minutes) to achieve 50% loss of bound cluster (Absorbance 458 nm) [4]
CC1(C)CCc2sc(NC(=O)c3ccc(NC4CCOCC4)cc3)c(C(=O)O)c21 [Compound #62, 4,4-Dimethyl-2-[[4-(tetrahydropyran-4-ylamino)benzoyl]amino]-5,6-dihydrocyclopenta[b]thiophene-3-carboxylic acid] | 50 | 380 |  |  |  |  |  |  |  |  | 
COc1ccc(C(=O)Nc2sc3c(c2C(=O)O)CCC(C)(C)C3)c(F)c1 [Compound #16, 2-[(2-Fluoro-4-methoxybenzoyl)amino]-6,6-dimethyl-5,7-dihydro-4H-benzothiophene-3-carboxylic acid] | 43.8 | 150 |  |  |  |  |  |  |  |  | 
CC1(C)CCc2c(sc(NC(=O)c3ccccc3)c2C(=O)O)C1 [Compound #15, 2-Benzamido-6,6-dimethyl-5,7-dihydro-4H-benzothiophene-3-carboxylic acid] | 60 | 150 |  |  |  |  |  |  |  |  | 
CC1(C)Cc2c(sc(NC(=O)c3ccc(Br)cc3)c2C(=O)O)C(C)(C)C1 [Compound #138, 2-[(4-Bromobenzoyl)amino]-5,5,7,7-tetramethyl-4,6-dihydrobenzothiophene-3-carboxylic acid] | 8.8 |  | 53% (16%) | stabilisers | 435 (210) minutes | 30% (3%) | Stabilisers | 66% (11%) | Stabilisers |  | 
COC1CN(c2ccc(C(=O)Nc3sc4c(c3C(=O)O)CCC(C)(C)C4)cc2)C1 [Compound #147, 2-[[4-(3-Methoxyazetidin-1-yl)benzoyl]amino]-6,6-dimethyl-5,7-dihydro-4H-benzothiophene-3-carboxylic acid] | 11.1 |  | 11% (16%) |  | 85 (310) minutes | 5% (3%) | destabilisers | 10% (11%) |  | 75 (80) minutes | 60 (60) minutes
CC1CC(C)(C)Cc2sc(NC(=O)c3ccc(NC4CCOCC4)cc3)c(C(=O)O)c21 (stereo not drawn) [Compound #136, 4,6,6-Trimethyl-2-[[4-(tetrahydropyran-4-ylamino)benzoyl]amino]-5,7-dihydro-4H-benzothiophene-3-carboxylic acid] | 12 |  | 2% (16%) |  | 325 (310) minutes | 5% (3%) |  | 10% (11%) | Destabilisers | 75 (80) minutes | 45 (60) minutes
CN(c1ccc(C(=O)Nc2sc3c(c2C(=O)O)CC(C)(C)CC3(C)C)cc1)C1CCOCC1 [Compound #135, 5,5,7,7-Tetramethyl-2-[[4-[methyl(tetrahydropyran-4-yl)amino]benzoyl]amino]-4,6-dihydrobenzothiophene-3-carboxylic acid] | 6.1 |  | 24% (16%) | stabilisers | 160 (310) minutes | 16% (3%) | destabilisers | 20% (11%) | Stabilisers | 100 (80) minutes | 80 min
COc1ccc(C(=O)Nc2sc3c(c2C(=O)O)CCC(C)(C)C3)cc1 [Compound #20, 2-[(4-Methoxybenzoyl)amino]-6,6-dimethyl-5,7-dihydro-4H-benzothiophene-3-carboxylic acid] | 74 |  | 0% (16%) |  | 300 (310) minutes | 4% (3%) |  | 9% (11%) | Destabilisers | 65 (80) minutes | 35 (60) minutes
